From ChEMBL document CHEMBL3638630 (2014)

Key:
[1] = target: 72 kDa type IV collagenase (Homo sapiens, UniProt P08253); assay: (§1) Inhibition Assay: The inhibition tests and the evaluation of the inhibition constants (Ki) on the various MMPs were carried out as described by Devel et al. (Devel et al. 2006 J. Biol. Chem. (7)).
Collagenase 3 = Collagenase 3 (Homo sapiens, UniProt P45452); assay: as §1
[2] = target: Macrophage metalloelastase (Homo sapiens, UniProt P39900); assay: as §1
[3] = target: Matrix metalloproteinase-14 (Homo sapiens, UniProt P50281); assay: as §1
[4] = target: Matrix metalloproteinase-9 (Homo sapiens, UniProt P14780); assay: as §1
Matrix metalloproteinase-9, sequence (P14780 whole entry): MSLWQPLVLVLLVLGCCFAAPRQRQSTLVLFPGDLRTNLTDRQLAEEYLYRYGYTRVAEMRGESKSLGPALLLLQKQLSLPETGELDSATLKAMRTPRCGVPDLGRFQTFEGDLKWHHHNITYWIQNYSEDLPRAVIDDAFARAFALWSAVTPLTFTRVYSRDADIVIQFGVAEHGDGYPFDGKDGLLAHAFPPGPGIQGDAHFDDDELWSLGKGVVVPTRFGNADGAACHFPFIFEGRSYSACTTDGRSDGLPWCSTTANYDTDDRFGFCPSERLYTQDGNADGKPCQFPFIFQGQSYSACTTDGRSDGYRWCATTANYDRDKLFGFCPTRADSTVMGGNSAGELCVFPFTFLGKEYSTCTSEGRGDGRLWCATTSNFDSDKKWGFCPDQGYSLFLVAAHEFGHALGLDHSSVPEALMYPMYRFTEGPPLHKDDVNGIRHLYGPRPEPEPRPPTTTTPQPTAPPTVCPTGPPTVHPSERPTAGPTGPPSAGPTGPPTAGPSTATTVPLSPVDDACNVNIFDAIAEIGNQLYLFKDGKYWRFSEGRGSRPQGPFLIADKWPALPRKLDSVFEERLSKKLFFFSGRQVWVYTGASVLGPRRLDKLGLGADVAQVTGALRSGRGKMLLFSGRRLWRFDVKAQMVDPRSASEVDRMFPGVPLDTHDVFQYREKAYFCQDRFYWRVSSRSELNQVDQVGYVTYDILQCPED

Neutrophil collagenase = Neutrophil collagenase (Homo sapiens, UniProt P22894); assay: as §1
Neutrophil collagenase, sequence (P22894 whole entry): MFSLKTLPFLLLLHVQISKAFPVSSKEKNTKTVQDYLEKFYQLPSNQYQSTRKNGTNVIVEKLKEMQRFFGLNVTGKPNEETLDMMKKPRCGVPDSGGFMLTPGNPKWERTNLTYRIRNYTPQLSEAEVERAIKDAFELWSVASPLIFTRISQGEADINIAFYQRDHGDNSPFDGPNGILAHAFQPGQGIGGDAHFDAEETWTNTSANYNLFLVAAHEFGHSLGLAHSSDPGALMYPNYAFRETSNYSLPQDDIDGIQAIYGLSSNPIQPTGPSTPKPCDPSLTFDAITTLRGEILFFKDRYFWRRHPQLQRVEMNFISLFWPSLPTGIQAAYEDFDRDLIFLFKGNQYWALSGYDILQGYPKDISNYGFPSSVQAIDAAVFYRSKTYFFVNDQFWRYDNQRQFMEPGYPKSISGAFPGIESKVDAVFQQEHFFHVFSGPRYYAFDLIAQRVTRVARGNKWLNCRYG

Stromelysin-1 = Stromelysin-1 (Homo sapiens, UniProt P08254); assay: as §1
Stromelysin-1, sequence (P08254 whole entry): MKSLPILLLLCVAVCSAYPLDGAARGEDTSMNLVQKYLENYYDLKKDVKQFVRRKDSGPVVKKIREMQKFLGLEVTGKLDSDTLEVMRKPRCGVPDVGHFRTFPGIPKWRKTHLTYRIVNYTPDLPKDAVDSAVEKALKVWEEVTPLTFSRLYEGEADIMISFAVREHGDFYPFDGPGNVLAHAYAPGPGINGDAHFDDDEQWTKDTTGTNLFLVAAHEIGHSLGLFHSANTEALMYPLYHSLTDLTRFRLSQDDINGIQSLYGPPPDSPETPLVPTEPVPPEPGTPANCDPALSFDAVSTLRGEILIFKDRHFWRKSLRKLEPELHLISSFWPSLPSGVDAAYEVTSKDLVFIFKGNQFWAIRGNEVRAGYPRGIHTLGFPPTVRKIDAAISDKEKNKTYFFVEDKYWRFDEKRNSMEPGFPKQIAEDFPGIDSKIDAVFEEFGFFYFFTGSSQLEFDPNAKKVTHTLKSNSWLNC

Stromelysin-2 = Stromelysin-2 (Homo sapiens, UniProt P09238); assay: as §1
Stromelysin-2, sequence (P09238 whole entry): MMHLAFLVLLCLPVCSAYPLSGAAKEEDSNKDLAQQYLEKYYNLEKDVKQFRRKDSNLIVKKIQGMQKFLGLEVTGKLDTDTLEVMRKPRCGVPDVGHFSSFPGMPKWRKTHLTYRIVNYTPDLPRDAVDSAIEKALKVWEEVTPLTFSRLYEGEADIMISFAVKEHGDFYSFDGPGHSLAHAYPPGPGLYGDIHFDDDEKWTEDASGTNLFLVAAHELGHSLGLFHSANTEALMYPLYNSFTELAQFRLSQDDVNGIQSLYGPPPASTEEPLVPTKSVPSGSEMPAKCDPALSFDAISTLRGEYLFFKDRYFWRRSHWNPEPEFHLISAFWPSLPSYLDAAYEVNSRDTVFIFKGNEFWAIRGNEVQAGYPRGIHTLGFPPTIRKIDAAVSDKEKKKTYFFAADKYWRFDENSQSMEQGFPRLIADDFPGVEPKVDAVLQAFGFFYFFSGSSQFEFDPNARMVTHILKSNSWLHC

Macrophage metalloelastase, sequence (P39900 whole entry): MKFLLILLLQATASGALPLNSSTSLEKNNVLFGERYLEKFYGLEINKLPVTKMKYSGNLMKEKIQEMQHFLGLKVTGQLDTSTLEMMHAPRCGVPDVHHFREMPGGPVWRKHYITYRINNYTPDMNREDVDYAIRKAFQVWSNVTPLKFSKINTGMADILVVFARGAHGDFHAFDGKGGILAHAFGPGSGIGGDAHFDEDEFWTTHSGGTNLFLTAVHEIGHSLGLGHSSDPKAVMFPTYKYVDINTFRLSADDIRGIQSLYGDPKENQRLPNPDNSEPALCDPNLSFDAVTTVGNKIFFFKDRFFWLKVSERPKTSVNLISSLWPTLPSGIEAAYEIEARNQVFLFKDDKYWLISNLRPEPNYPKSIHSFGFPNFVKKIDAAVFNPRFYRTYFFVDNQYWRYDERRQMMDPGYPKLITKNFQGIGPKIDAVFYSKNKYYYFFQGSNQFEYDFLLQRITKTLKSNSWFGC
72 kDa type IV collagenase, sequence (P08253 whole entry): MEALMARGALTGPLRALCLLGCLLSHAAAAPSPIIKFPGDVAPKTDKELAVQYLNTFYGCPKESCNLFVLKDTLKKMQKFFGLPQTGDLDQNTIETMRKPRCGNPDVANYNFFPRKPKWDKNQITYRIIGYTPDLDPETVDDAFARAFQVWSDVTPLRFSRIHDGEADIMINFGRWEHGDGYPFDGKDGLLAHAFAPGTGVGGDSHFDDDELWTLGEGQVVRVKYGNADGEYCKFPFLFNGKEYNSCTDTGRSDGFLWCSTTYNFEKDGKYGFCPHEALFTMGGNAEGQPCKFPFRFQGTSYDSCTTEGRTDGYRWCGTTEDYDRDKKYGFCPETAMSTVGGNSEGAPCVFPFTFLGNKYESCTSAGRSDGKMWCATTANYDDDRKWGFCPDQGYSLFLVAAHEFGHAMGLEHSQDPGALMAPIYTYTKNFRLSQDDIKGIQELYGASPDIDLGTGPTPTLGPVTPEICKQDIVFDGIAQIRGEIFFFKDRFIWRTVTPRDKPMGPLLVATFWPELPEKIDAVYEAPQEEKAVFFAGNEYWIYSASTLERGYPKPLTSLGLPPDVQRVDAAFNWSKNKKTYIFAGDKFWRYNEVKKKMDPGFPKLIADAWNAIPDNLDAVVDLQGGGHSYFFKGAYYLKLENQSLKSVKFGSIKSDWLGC

NC(=O)CC[C@H](NC(=O)CCc1ccc(-c2cc(-c3ccccc3)cs2)cc1)C(=O)N[C@@H](CCC(=O)O)C(N)=O
Ki [1]: > 5 µM
Ki (Collagenase 3): > 1 µM
Ki [2]: 0.317 µM
Ki [3]: > 10 µM
Ki [4]: > 5 µM
Ki (Neutrophil collagenase): > 10 µM
Ki (Stromelysin-1): > 10 µM
Ki (Stromelysin-2): > 10 µM
